Data from patent publication US10722480B2, “Agent for controlling cells constituting cancer microenvironment or inflammatory microenvironment” (The University of Tokyo, priority 2015, dated 2020).

Columns and labels:
FROUNT-CCR2 interaction = biological target: T1, FROUNT-CCR2 interaction (Homo sapiens, UniProt Q9BW27); test: HTRF binding inhibition assay, FROUNT-CCR2 interaction
T1 construct: made in house
T1 sequence (Q9BW27 500-656): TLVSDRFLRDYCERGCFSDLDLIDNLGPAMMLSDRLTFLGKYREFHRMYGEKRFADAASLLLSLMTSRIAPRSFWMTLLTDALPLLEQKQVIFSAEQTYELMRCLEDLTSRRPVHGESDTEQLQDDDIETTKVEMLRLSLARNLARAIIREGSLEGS
Description: For the screening, a compound library containing 131,200 kinds of compounds dissolved in DMSO at a concentration of 10 mM or 2 mM (obtained from Open Innovation Center for Drug Discovery, the University of Tokyo) was used. The HTRF assay was carried out using a 384-well low-dose white microplate (Corning Coaster; catalog number 3676). In each well, 4 μL of a solution of 20 nM GST fusion FROUNT protein (a recombinant polypeptide prepared by fusing GST to aa 500-656 of SEQ ID NO:2), and DMSO or test compounds were mixed with a binding buffer (10 mM HEPES [pH 7.4], 0.2 M potassium fluoride, 10 mM NaCl, 0.1% Tween 20, and 0.5% bovine serum albumin [BSA]), and the plate was incubated at room temperature for 30 minutes. […]. After incubation at room temperature for 20 hours, the HTRF signal was measured at emission wavelengths of 620 nm and 665 nm using a multilabel counter EnVision (PerkinElmer).
By the same HTRF assay as described above, the abilities of disulfiram to inhibit the FROUNT-CCR2 interaction or the FROUNT-CCR5 interaction were investigated. As the CCR5 pro-C peptide, the 16 residues […] (SEQ ID NO:4) in the C-terminal region of CCR5 was used. As a control, the p53-MDM2 interaction (which is inhibited by an MDM-2-specific inhibitor Nutlin), which is also a helix peptide-protein interaction like the interaction between FROUNT and CCR2 or CCR5 but is not related thereto, was used.

FROUNT protein = biological target: T2, FROUNT protein (Homo sapiens, UniProt Q9BW27); test: NMR analysis of binding to FROUNT fragment
T2 construct: A fragment consisting of the region of the 500th to 656th amino acids of FROUNT protein; made in house
T2 sequence (Q9BW27 500-656): T1 sequence (Q9BW27 500-656)
Description: A fragment consisting of the region of the 500th to 656th amino acids of FROUNT protein and a CCR2 pro-C region fragment of 16 residues (SEQ ID NO:3) were prepared, and the binding state between the two fragments and the binding state between FROUNT protein and disulfiram were investigated by NMR analysis.

[1] = biological target: T3, Full-length FROUNT protein (Homo sapiens, UniProt Q9BW27); test: Surface plasmon resonance binding to FROUNT; conditions: SPR
T3 construct: made in house
T3 sequence (Q9BW27 1-656): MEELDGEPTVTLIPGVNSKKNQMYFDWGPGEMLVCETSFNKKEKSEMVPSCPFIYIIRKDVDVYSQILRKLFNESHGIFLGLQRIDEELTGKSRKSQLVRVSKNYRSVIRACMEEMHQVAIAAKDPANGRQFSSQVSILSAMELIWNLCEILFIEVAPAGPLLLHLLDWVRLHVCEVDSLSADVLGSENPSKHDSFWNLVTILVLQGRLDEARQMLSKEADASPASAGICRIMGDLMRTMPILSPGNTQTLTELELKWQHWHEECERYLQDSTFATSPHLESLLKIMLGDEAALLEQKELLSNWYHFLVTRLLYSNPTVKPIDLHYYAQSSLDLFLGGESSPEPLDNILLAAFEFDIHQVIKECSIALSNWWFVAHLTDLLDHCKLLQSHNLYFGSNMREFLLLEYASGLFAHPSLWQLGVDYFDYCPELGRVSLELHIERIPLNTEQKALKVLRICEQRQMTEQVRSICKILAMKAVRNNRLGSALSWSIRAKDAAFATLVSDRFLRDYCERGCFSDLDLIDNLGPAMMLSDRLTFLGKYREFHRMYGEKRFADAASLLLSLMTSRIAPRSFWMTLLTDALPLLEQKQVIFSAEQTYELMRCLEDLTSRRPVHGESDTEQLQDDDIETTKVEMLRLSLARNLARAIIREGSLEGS
Description: Interactions between FROUNT and compounds in the library were analyzed by surface plasmon resonance (SPR) using Biacore […] (GE Healthcare). Full-length FROUNT protein (SEQ ID NO:2) (Esaki, K. et al. Protein Expr Purif 77, 86-91, (2011)) was immobilized on a CM5 sensor chip. Solutions of disulfiram prepared by serial dilution in HBS-EP buffer containing 2% DMSO (GE Healthcare) were applied to the sensor chip at a flow rate of 30 μL/min. The resonance unit (RU) was measured during the process from the binding to the washing to analyze the binding dynamics. Biacore T100 evaluation software was used to carry out solvent correction for DMSO.

CCN(CC)C(=S)SSC(=S)N(CC)CC [DSF, disulfiram]
inhibitory action against FROUNT-CCR2 relative to p53-MDM2 (FROUNT-CCR2 interaction): about 100 times | inhibition of FROUNT-CCR2 interaction (FROUNT-CCR2 interaction; HTRF, result in words): selectively inhibited | IC50 (FROUNT-CCR2 interaction; HTRF, read-out: FROUNT inhibition (IC50 against FROUNT-CCR2)): 42 nM | interaction with FROUNT / binding site on FROUNT (FROUNT protein): directly interact | binding to FROUNT protein [1]: directly bound
